Laboratory results as given in patent US10266807B2, “Methods and compositions for culturing endoderm progenitor cells in suspension” (FUJIFILM Cellular Dynamics, Inc., priority 2013, dated 2019).

Key:
Assay type in all cases: cell-based, human
[1] = tested on: undifferentiated iPSCs (2.038); test: Generation of definitive endoderm (DE) from undifferentiated iPSCs with or without CHIR; settings: for CXCR4/CD117 co-expressing cells / Output DE Day 7: 2 μM CHIR (+)
Description: Undifferentiated iPSCs maintained using Essential 8 on Matrigel were plated at a seeding density of 13,000 cells/cm^2 on Matrigel. Four days-post-plating, the cells were placed in 90% RPMI/10% SFD media containing 100 ng/mL Activin A for one day followed by incubation with 90% RPMI/10% SFD supplemented with 100 ng/mL Activin A, 2.5 ng/mL BMP4, 10 ng/mL VEGF, and 10 ng/mL zebrafish FGF2 for the next two days. From day 4-12, the cells were placed in SFD media supplemented with 100 ng/mL Activin A, 2.5 ng/mL BMP4, 10 ng/mL VEGF, and 10 ng/mL zebrafish FGF2. Supplementation with 2 μM CHIR was included in one set at day 1 of differentiation while it was omitted in another set. The cells were harvested on day 7 using TrypLE. The total viable cell number post digestion was determined at each time point. The percentage of CXCR4, CD117 co-expressing cells was determined by cell surface staining by flow cytometry (Table 1). The absolute number of CXCR4/CD117 double-positive cells was calculated. The ratio of input iPSC to output DE was also quantified (Table 1).

[2] = tested on: 2.038AT4 cells; test: Beta cell differentiation of 2.038AT4 EPCs with Dox induction, intracellular flow cytometry; settings: Dox 1.5 μg/ml between day 10-15, harvested day 15, repeat experiment
Description: 2.038AT4.14EGN (also called 2.038AT4) cells were maintained in Essential 8 under hypoxic conditions during DE induction without CHIR using 2.5 ng/ml BMP4. DE were maintained in EPC cycling media without MEFs under hypoxic conditions. Media was supplemented with neomycin (100 ug/ml) and puromycin (600 ng/ml) for iPSC culture, DE culture, and EPC cycling. At P7, EPC were harvested and MACS purification was performed using CD34/CXCR4/CD117. Purified cells were plated on neat Matrigel in the presence of a Rock inhibitor.
Beta cell differentiation was initiated 5 days post re-aggregation according to the protocol described by Nostro et al. (2011) further modified by Cheng et al. (2012a) in a 2D format. Dox was added at different stages of the beta cell differentiation process. Dox (1.5 μg/ml) induction was performed between days 6-15 of beta cell differentiation, between days 8-15 of beta cell differentiation, or between days 10-15 of beta cell differentiation. The cells were harvested on day 15 of beta cell differentiation, fixed, and stained for quantification of PDX/NeuroD1/C-peptide/Glucagon/Somatostatin by intracellular flow cytometry.
The experiment was performed again with the addition of Dox (1.5 μg/ml) between day 10-15 of beta cell differentiation. The cells were harvested on day 15 of beta cell differentiation and assayed for PDX/NeuroD1/C-Peptide/Glucagon/Somatostatin expression levels by intracellular flow cytometry. […] The total C-Peptide levels were around 10% of which 5% of cells appeared monohormonal. Glucagon expression was not recorded. C-peptide release assays were performed as described above. […] Both the Dox induced and un-induced beta cell cultures were capable of eliciting a dose-dependent response to glucose (FIG. 30).

[3] = tested on: beta cells derived from 2.038AT4 cells; test: C-peptide release assay (glucose responsiveness) of end-stage beta cells
Description: C-peptide release assays were performed as previously described (D'Amour et al., 2006) using a Mercodia Ultrasensitive C-peptide ELISA kit (Mercodia). Briefly, aggregates that were beyond day 25 in the beta cell differentiation protocol from each iPSC clone were placed in a millicell PCF insert within a 24 well plate. The aggregates were equilibrated in 1 ml KRBH medium for one hour at 37° C. and 5% CO2, 20% O2. The aggregates were next placed in a second well containing 0.5 ml KRBH medium supplemented with serially increasing levels of glucose from 1-20 mM. Each incubation lasted for 20 mins at 37° C. and 5% CO2, 20% O2. Extreme care was taken to drain the aggregates of all residual fluid between well transfers. The supernatant left behind was collected and stored at −20° C. At the end of the experiment the aggregates were digested with TryPLE and the total viable cell count per sample was determined to normalize the data. C-peptide secretion was normalized based on the total viable cell number taken for each sample.
C-peptide release assays were performed as described in Example 12. Beta cell cultures induced with Dox induction between days 10-15 generated a response to between 1-5 mM glucose (FIG. 28). […]
The experiment was performed again with the addition of Dox (1.5 μg/ml) between day 10-15 of beta cell differentiation. […] Glucagon expression was not recorded. […]

[4] = tested on: 2.038AT4 cells; test: qPCR analysis of ERG and GFI expression; settings: Dox induction during beta cell differentiation
Description: The levels of ERG (FIG. 32A) and GFI (FIG. 32B) transcripts at different stages of the process were quantified from 2.038 and 2.038AT4 cells. Dox induction of 2.038AT4 cells was only applied at the beta cell differentiation stage. Cells from 2.038AT4 were always cultured in media containing neomycin (100 μg/mL) and puromycin (600 ng/mL) regardless of stage of differentiation. RNA was isolated from undifferentiated iPSC, DE, EPC, and beta cell cultures derived from 2.038 cells and 2.038AT4 cells using the RNeasy Plus Mini Kit from Qiagen (Catalog #74136) according to the manufacturer's directions. RNA quantification was performed using the Nanodrop 2000. RNA was reverse transcribed with the ImProm-II RT System from Promega (Catalog # A3800) according to manufacturer's directions. rt-qPCR was performed using TaqMan Gene Expression Master Mix (Catalog #4369016) and TaqMan probes (ERG: Hs01554629_m1; GFI1: Hs00382207_m1; GAPDH: Hs99999905_m1) with technical triplicates and run on the Roche LightCycler for 45 cycles. Fold induction was calculated by DeltaCp with normalization to GAPDH. Undifferentiated iPSCs of the same genetic background were used as negative controls. Whole pancreas RNA (Ambion Catalog # AM7954) and human islets provided by the UW Islet Core were used as positive controls.

Row | Level of ERG/GFI transcripts [4] | SMILES | CXCR4/CD117 co-expressing cells ([1]; cell line 2.038 (1131), format 6 well, harvested day 7) [%] | Output DE Day 7 ([1]; cell line 2.038 (1131), format 6 well, input iPSCs 1.95 ×10^6) | CXCR4/CD117 co-expressing cells ([1]; cell line 2.038, format T150, harvested day 7) [%] | Output DE Day 7 ([1]; cell line 2.038, format T150, input iPSCs 5.85 ×10^6) | Effect on efficiency of DE formation ([1]; CHIR added on day zero of endoderm induction) | Monohormonal cells [2] [%] | PDX/NeuroD1 expression [2] | Total C-Peptide levels [2] | Glucose concentration range of dose-dependent C-peptide response ([3]; Dox 1.5 μg/ml between day 10-15, repeat experiment, un-induced cultures also responded) [mM] | Glucose concentration range eliciting C-peptide response ([3]; Dox induction between days 10-15) [mM]
1 | – | Cc1c[nH]c(-c2cnc(NCCNc3ccc(C#N)cn3)nc2-c2ccc(Cl)cc2Cl)n1 [CHIR, CHIR99021] | 45 | 84 ×10^6 | 54 | 186 ×10^6 | did not result in increased efficiency of DE formation | – | – | – | – | –
2 | slight increase | C[C@H]1c2cccc(O)c2C(=O)C2=C(O)[C@]3(O)C(=O)C(C(N)=O)=C(O)[C@@H](N(C)C)[C@@H]3[C@@H](O)[C@@H]21 [Dox, Doxycycline] | – | – | – | – | – | 5 | 25%-30 | around 10% | 1 to 15 | 1 to 5
